Assay results taken from BindingDB's records for patent US11878965 (Gilead Sciences, 2024).

target: Protein-arginine deiminase type-4 (Homo sapiens, UniProt Q9UM07); assay: In Vitro PAD4 BAEE Biochemical Assay
Method: One hundred nanoliters of test compounds dissolved in DMSO at various concentrations were dispensed into a 384-well black OptiPlate using a Labcyte Echo instrument. Ten microliters of a solution of recombinant PAD4 and calcium chloride diluted in PAD4 assay buffer (50 mM MOPS [3-(N-morpholino) propanesulfonic acid], pH 7.6; 50 mM sodium chloride; 0.05% Tween-20; 2 mM dithiothreitol) was added to the compound-containing plate and was incubated for 30 minutes at 25° C. Ten microliters of a solution of BAEE (Sigma-Aldrich #B4500) diluted in PAD4 assay buffer was then added to start the reaction. Final concentrations were 5 nM PAD4, 2 mM calcium chloride, and 3 mM BAEE. The reaction mixture was incubated at 25° C. for 2 hours and was stopped with the addition of 10 microliters of a solution of 75 mM EDTA (Ethylenediaminetetraacetic acid) in PAD4 assay buffer. Thirty microliters of detection solution (5 mM o-phthalaldehyde, 50 mM MOPS [3-(N-morpholino) propanesulfonic acid], pH 7.6; 50 mM sodium chloride; 0.05% Tween-20; 5 mM dithiothreitol) was then added and the reaction was incubated for 1 hour at 25° C.

Protein-arginine deiminase type-4, sequence (Q9UM07 whole entry): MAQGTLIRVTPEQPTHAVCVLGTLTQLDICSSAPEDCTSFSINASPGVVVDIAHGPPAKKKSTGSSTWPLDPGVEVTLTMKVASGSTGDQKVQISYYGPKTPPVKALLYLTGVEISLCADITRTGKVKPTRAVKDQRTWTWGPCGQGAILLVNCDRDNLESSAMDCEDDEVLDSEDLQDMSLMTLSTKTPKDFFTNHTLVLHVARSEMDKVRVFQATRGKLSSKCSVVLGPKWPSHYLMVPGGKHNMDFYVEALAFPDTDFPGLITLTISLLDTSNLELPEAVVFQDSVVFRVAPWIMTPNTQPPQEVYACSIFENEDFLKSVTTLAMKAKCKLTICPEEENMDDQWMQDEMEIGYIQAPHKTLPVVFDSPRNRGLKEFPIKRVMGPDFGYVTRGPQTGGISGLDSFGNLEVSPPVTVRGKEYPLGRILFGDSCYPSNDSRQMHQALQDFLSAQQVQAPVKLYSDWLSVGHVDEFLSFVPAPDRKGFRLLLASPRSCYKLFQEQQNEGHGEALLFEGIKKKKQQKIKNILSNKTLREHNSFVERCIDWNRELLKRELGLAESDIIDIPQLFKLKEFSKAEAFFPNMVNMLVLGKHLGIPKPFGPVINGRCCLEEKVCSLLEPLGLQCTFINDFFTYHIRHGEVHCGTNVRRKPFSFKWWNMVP

| SMILES | IC50 [nM] |
| --- | --- |
| COc1cc(C(=O)N2[C@H]3CC[C@@H]2[C@H](N)C3)cc2nc(-c3cc4ccc([C@@H](C)NC(=O)N5CC(F)(F)C5)nc4n3CC3CC3)n(C)c12 [US11878965, Example 238] | 28.7 |
| COc1cc(C(=O)N2C[C@H](N)CC[C@@H]2C)cc2nc(-c3cc4ccc(N5C(=O)CC[C@H]5C)nc4n3CC3CC3)n(C)c12 [US11878965, Example 284] | 1240 |

Next, values leading:

| IC50 [nM] | SMILES |
| --- | --- |
| 229 | COc1cc(C(=O)N2[C@H]3CC[C@@H]2[C@H](N)C3)cc2nc(-c3cc4ccc([C@@H](C)NC(=O)C56CC(F)(C5)C6)c(F)c4n3CC3CC3)n(C)c12 [US11878965, Example 144] |
| 245 | COc1cc(C(=O)N2C[C@H](N)CC[C@@H]2C)cc2nc(-c3cc4ccc(-c5cccnc5-c5cccnc5Cl)nc4n3CC3CC3)n(C)c12 [US11878965, Example 258] |
| 68.4 | COc1cc(C(=O)N2C[C@H](N)[C@@H]3CC[C@H]2C3)cc2nc(-c3cc4ccc([C@@H](C)NC(=O)c5cccnc5Cl)nc4n3CC3CC3)n(C)c12 [US11878965, Example 302] |
